Measurements from publication PMC8948406 (Journal for Immunotherapy of Cancer, 2022).
Where two headings read alike, the source gives them in different places.

Legend:
[1] = for Cmax, Clast and tmax versus other part and niraparib monotherapy: first dose
advanced solid tumors = details: cited from earlier work
[2] = Dostarlimab serum pharmacokinetics; type: in vivo, human; details: coadministration of niraparib, carboplatin–paclitaxel, or bevacizumab
[3] = biological target: PD-1 receptors on CD3+ T-cells (Homo sapiens, UniProt Q15116); assay: PD-1 receptor occupancy by flow cytometry; type: cell-based; details: by end of treatment; parts A, B and D
non-squamous NSCLC = details: combination with chemotherapy; cited from earlier work

Sequence of PD-1 receptors on CD3+ T-cells (Q15116 25-288): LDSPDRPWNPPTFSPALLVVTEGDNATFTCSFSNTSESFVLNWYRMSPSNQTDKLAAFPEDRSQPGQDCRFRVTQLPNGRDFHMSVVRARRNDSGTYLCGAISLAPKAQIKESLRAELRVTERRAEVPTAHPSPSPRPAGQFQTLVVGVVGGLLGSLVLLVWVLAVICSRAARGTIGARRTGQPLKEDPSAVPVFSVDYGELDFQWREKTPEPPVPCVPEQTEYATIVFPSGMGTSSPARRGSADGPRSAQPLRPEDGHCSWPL

In the case of `NC(=O)c1cccc2cn(-c3ccc([C@@H]4CCCNC4)cc3)nc12` [niraparib, [3S]-3-[4-[7-(aminocarbonyl)-2H-indazol-2-yl]phenyl] piperidine], the “Cmax lower in part C than in part A” value ([1]; 200 mg) was 47.1%, the “Exposures (Cmax and AUClast) versus monotherapy” value ([1]; 200 mg, part A) was “comparable to monotherapy” and the “AUClast higher in part C than in part A” value ([1]; 300 mg QD) was “approximately 46%”. For the same compound, the “AUClast lower than niraparib monotherapy” value ([1]; 300 mg, part A) was 9.6%, the “AUClast higher than niraparib monotherapy” value ([1]; 300 mg, part C) was 31.6% and the “Cmax, Clast and tmax versus other part and niraparib monotherapy” value ([1]; 300 mg) was “consistent across both parts and similar to PK data for niraparib monotherapy”. For the same compound, the “Cmax, Clast and tmax versus other part and niraparib monotherapy” value ([1]; 300 mg, listed as Niraparib) was “consistent in parts A and C”, the “Variability of niraparib exposure” value ([1]; regardless of dose and cohort) was ~ 50% and the “Variability of exposure, monotherapy data” value (advanced solid tumors) was “up to 66%”.

For “dostarlimab: PD-1 inhibitor; IgG4 humanized monoclonal antibody that binds with high affinity to PD-1”, the “Effect of the combination partners on dostarlimab PK” value [2] was “no observed impact” and the “Overall mean PD-1 receptor occupancy” value [3] was 99.0%.

For “pembrolizumab: anti-PD-1 antibody, given with chemotherapy in the cited trials”, the “Grade ≥3 neutropenia” value (non-squamous NSCLC) is given as 15.8%.
